Source: patent US12515027B2, “Subcutaneous biodegradable reservoir device” (Research Triangle Institute, priority 2018, dated 2026)
In brackets after ≈: the same amount, converted by molar mass. Several values for one entry are separate records, joined by “and”; a condition that tells them apart may be missing. Equal values may be shown once. Where a name gives a salt, the structure may show the parent alone.

Tests used:
[1] = rhesus monkey, in vivo; cited from earlier work
physchem = conditions: 37 °C, organic solvent or mixture, thermodynamic from solid, Solubility
Procedure: Over a 24-hour period, the solutions were mixed periodically and returned to the water bath. After approximately 72 hours, the solutions were removed from the water bath and appearance recorded for each of the saturated solutions. […] The supernatants were prepared for analysis by UPLC. Triplicate weighed aliquots were prepared from the collected supernatants and analyzed for assay using a UPLC/UV method. The analysis was performed using a Waters BEH C18 column (2.1 mm×50 mm, 1.7 μm) under gradient, reversed phase conditions with detection at 260 nm. The saturated solutions were quantitated by linear regression analysis against a 5-point calibration curve.
Testing using the same methodology was performed for EFdA, LNG, and ENG using various excipients.

[2] = In vitro release from PCL reservoir implants in PBS pH 7.4 at 37 °C (UV-Vis); format: physicochemical; conditions: for Daily RR: PCL 89 kDa
Procedure: The implants were incubated in 1×PBS (pH 7.4) at 37° C. Drug quantity released in media was measured via UV-Vis three times per week during which the implants were transferred to fresh buffer to maintain sink conditions. Drug concentrations were determined by correlating UV absorbance values to a standard curve. Standard curves involved measuring peak absorbance values as a function of drug concentrations diluted by half from bulk solutions. Peak absorbance values were determined by scanning the dilute drug solutions from 230 to 700 nm at a step size of 1 nm and assessing the maximum UV absorbance value.
Testing was performed to evaluate release kinetics of varying formulations of active agent and excipient. In particular, the release mechanism and release profiles for TAF formulated with varying mass quantities of castor oil from extruded PCL tubes was evaluated. Heat extruded PCL devices were fabricated (2.5 mm×40 mm) using 80 kDa Sigma grade PCL. […] For the in vitro release studies, devices were incubated in 40 mL of phosphate buffered saline (PBS) at pH 7.4 in a shaking incubator at 37° C. The implants were transferred to fresh buffer three times per week to maintain sink conditions.
Testing was performed to evaluate the in vitro release profile for an exemplary segmented device. In-vitro conditions included a simulated physiological media of a salt solution at pH between 6.5 and 7.5 at a temperature of 37° C. The exemplary device was engineered to release two APIs simultaneously, both at zero-order release kinetics. The device was fabricated with a segmented architecture that contained LNG formulated with ethyl oleate at a 1:4 ratio and EFdA formulated with castor oil at a 1:1 ratio and housed in separate compartments within a single implant design. Different segment lengths, polymer membrane thicknesses and polymer properties were tested.
In vitro release characterization involved incubation of the implants in 40 mL 1× phosphate buffered saline (PBS) (pH 7.4) at 37° C. and placed on an orbital shaker. […] The release buffer was sampled three times per week during which the devices were transferred to 40 mL of fresh buffer to maintain sink conditions. TAF quantity released in each PBS buffer during the time interval was calculated and cumulative mass of drug release as a function of time was determined.

[3] = Chromatographic purity (stability) of formulation inside implant after in-vitro exposure (UPLC/UV); format: physicochemical
[4] = In vivo study of one or two subcutaneous PC12 implants, 90 days (Example 20); set-up: species or system New Zealand white rabbits; conditions: hormone in subcutaneous implant
Procedure: In vivo analysis was performed with 20 naïve New Zealand white rabbits. […] In particular, female NZW rabbits each received two subcutaneous implants bilaterally inserted into the subscapular region: (1) one implant that contained an ARV drug and (2) one implant that contained a hormonal contraceptive drug. Both implants remained in the subcutaneous space for 90 days. Blood samples were taken at 0, 1, 3, 7, […], 45, 60, 75, and 90 days. After 90 days, the animals were euthanized, and the implants were retrieved. Tissues were collected and analyzed for levels of ARVs (TFV, TAF, and TFV-DP). As a comparator for the dual insertion modality, each female NZW rabbit in a separate group received a single implant, where each implant contained a single drug formulation: either ARV or hormone. The implant remained in the subcutaneous space for 90 days. Blood samples were taken at 0, 1, 3, 7, 15, 30, 45, 60, 75, and 90 days. After 90 days, the animals were euthanized, and the implants were retrieved. Tissues were collected and analyzed for levels of ARVs (TFV, TAF, and TFV-DP). The polymer was PC12.

[5] = Evaluation of Elvitegravir for use in the device
Procedure: Elvitegravir, which is marketed by Gilead, was also evaluated.

[6] = Naltrexone excipient screen, rapid solubility assay; format: physicochemical
Procedure: Heat extruded polycaprolactone (PCL) tubes were fabricated (2.5 mm×40 mm) using 80 kDa PCL to produce devices with 70 μm and 100 μm wall thicknesses. […] In vitro release studies involved incubation of devices in 40 mL of phosphate buffered saline (PBS), pH 7.4 in a shaking incubator at 37° C. Implants were transferred to fresh buffer three times per week to maintain sink conditions. The concentration of drugs released in media over time was measured via UV-vis spectroscopy. Solubility, stability, and purity of APIs in excipient were evaluated via HPLC.

[7] = Stability of Naltrexone base in excipients; format: physicochemical; conditions: stability results
[8] = segmented implant: ENG:sesame oil 2:1 (10 mm, 200 μm) + TAF base:castor oil 2:1 (40 mm, 70 μm)
[9] = segmented implant: ENG:sesame oil 2:1 (10 mm, 200 μm) + TAF base:sesame oil 2:1 (40 mm, 70 μm)

For `CC(Cn1cnc2c(N)ncnc21)OCP(=O)(O)OP(=O)(O)OP(=O)(O)O` (stereo in doubt) [TFV-DP, tenofovir diphosphate], the “duration of sustained levels in PBMCs” value [1] is given as 83 days.
For `C#C[C@]1(CO)O[C@@H](n2cnc3c(N)nc(F)nc32)C[C@@H]1O` [EFdA], the solubility at 72 h (physchem) was 34.9 mg/mL (≈ 119 mM), the “release rate for the glycerol device” value ([2]; 70 μm wall, FIG. 11C study) was 30 μg of EFdA/day and the “release rate for the sesame oil device” value ([2]; 70 μm wall, FIG. 11C study) was 8 μg of EFdA/day. The “duration of sustained linear release” value ([2]; EFdA castor oil devices, 70 μm, medical grade PCL) was 1 year, the “exposure after which release deviated from zero-order” value ([2]; EFdA formulations other than castor oil) was > 200 days and the “duration of zero-order kinetics” value ([2]; EFdA segment of segmented implant) was 1 year. The “duration of sustained, zero order release” value ([2]; EFdA with varying excipients, 70 μm wall) was “over 60 days”, the “duration of sustained zero-order release” value ([2]; EFdA-castor oil devices, 80 KDa PCL, 70 μm wall) was 200 days and the “Release Rate (μg/day, 10 mm device)” value ([2]; EFdA:castor oil 1:1, 70 μm wall) was 10 µg/day and 10.0 µg/day. The “Release Rate (μg/day, 10 mm device)” value ([2]; EFdA:ethyl oleate 1:1, 70 μm wall) was 13.0 µg/day, the “Release Rate (μg/day, 10 mm device)” value ([2]; EFdA:glycerol 1:1, 70 μm wall) was 15 µg/day and 15.0 µg/day and the “Release Rate (μg/day, 10 mm device)” value ([2]; EFdA:propylene glycol 1:1, 70 μm wall) was 11.0 µg/day. For the same compound, the “Release Rate (μg/day, 10 mm device)” value ([2]; EFdA:sesame oil 1:1, 70 μm wall) was 12.0 µg/day, the “duration of sustained linear release” value ([2]; exemplary EFdA formulations, summary statement) was “over 1 year” and the “release profile / release rate” value ([2]; exemplary formulations/devices, summary statement) was 5 to 30 µg/day. For the same compound, the “duration of zero-order release” value ([2]; segmented implant LNG/EFdA) was 6 months, the “release rate of segment” value ([2]; segmented implant: LNG:ethyl oleate 1:4 and EFdA:castor oil 1:1, 70 μm wall, EFdA after burst of first 10 days) was ~20 µg/day and the “% Purity at Day-365” value ([3]; EFdA with castor oil) was 99.3%. The “% Purity at Day-365” value ([3]; EFdA with ethyl oleate) was 99.4%, the “% Purity at Day-365” value ([3]; EFdA with glycerol) was 99.5% and the “% Purity at Day-365” value ([3]; EFdA with propylene glycol) was 99.5%. The “% Purity at Day-365” value ([3]; EFdA with sesame oil) was 99.3%, the “stability within an exemplary implant” value ([3]; after 1 year in in-vitro conditions) was ~99% and the “purity after 1 year of exposure to in-vitro conditions” value ([3]; all EFdA implants, Day-365) was > 99%.
In the case of `C#C[C@]1(O)CC[C@H]2[C@@H]3CCC4=CC(=O)CC[C@@H]4[C@H]3C(=C)C[C@@]21CC` [ENG, Etonogestrel], the Release rate ([2]; 10 mm-long devices, 200 μm implants per b165 (second listing in Table 5)) is reported as ~30 µg/day, the “start of deviation from linear release” value ([2]; ENG 1:4 and 1:1 drug to excipient ratios, depletion of drug) is reported as ~50 days and the “duration of sustained release with zero-order kinetics” value ([2]; ENG 2:1 ratio with castor oil or sesame oil) is reported as “approximately 300 days”. For the same compound, the “sustained period of release at about 30 μg/day” value ([2]; exemplary device, in vitro conditions) was “up to 180 days”, the “duration of linear release profile in vitro” value ([2]; exemplary formulations, summary statement) was 230 days and the “Daily RR” value [2, 8] was 26.2 ± 7.1 µg/day. The “Daily RR” value [2, 9] was 26.3 ± 6.7 µg/day, the “duration of zero-order release from segmented implants” value ([2]; segmented implants of TAF with LNG or ENG) was 50 days and the “% Purity at 180 Days” value ([3]; after 180-day in-vitro exposure, 200 μm implants per b165 (second listing in Table 5)) was 99%. The “stability within an exemplary implant” value ([3]; tested at 180 days in in-vitro conditions) was > 99% and the “stability in vivo for 90 days” value [4] was 99.5%.
With `COc1cc2c(cc1Cc1cccc(Cl)c1F)c(=O)c(C(=O)O)cn2[C@H](CO)C(C)C` [Elvitegravir] the aqueous solubility [5] was “low”.
In the case of `Nc1nc(=O)n([C@@H]2CS[C@H](COP(=O)(O)OP(=O)(O)OP(=O)(O)O)O2)cc1F` [FTC-TP, FTC-triphosphate], the “duration of sustained levels in PBMCs” value [1] is listed as 28 days.
For `C#C[C@]1(O)CC[C@H]2[C@@H]3CCC4=CC(=O)CC[C@@H]4[C@H]3CC[C@@]21CC` [LNG, Levonorgestrel], the “stability within an exemplary implant” value ([3]; tested at 240 days in in-vitro conditions) was “greater than 92%” and the “stability in vivo for 90 days” value [4] was 99.2%±0.1.
In the case of `O=C1CC[C@@]2(O)[C@H]3Cc4ccc(O)c5c4[C@@]2(CCN3CC2CC2)[C@H]1O5` [Naltrexone Base, Naltrexone], the “Sum of impurities (% total area)” value ([6]; API alone, no excipient (reference line)) is reported as 2.50%, the “Sum of impurities (% total area)” value ([6]; excipient screen, in PEG600) is reported as 2.10% and the “Sum of impurities (% total area)” value ([6]; excipient screen, in castor oil) is reported as 4.50%. For the same compound, the “Sum of impurities (% total area)” value ([6]; excipient screen, in ethyl oleate) was 9.60%, the “Sum of impurities (% total area)” value ([6]; excipient screen, in sesame oil) was 3.20% and the Assay ([6]; in PEG600) was 46.2 mg/mL. For the same compound, the Assay ([6]; in castor oil) was 9.63 mg/mL, the Assay ([6]; in ethyl oleate) was 2.79 mg/mL and the Assay ([6]; in sesame oil) was 4.62 mg/mL. For the same compound, the “Sum of impurities (% total area)” value ([7]; with PEG600) was 5.10%, the “Sum of impurities (% total area)” value ([7]; with castor oil) was 5.20% and the “Sum of impurities (% total area)” value ([7]; with ethyl oleate) was 9.90%. The “Sum of impurities (% total area)” value ([7]; with sesame oil) was 6.40%.
In the case of `O=C1CC[C@@]2(O)[C@H]3Cc4ccc(O)c5c4[C@@]2(CCN3CC2CC2)[C@H]1O5` [Naltrexone Salt, Naltrexone hydrochloride], the “Sum of impurities (% total area)” value ([6]; API alone, no excipient (reference line), hydrochloride) is reported as 4.10%, the Assay ([6]; in PEG600, hydrochloride) is reported as <0.1 mg/mL and the Assay ([6]; in castor oil, hydrochloride) is reported as <0.1 mg/mL. For the same compound, the Assay ([6]; in ethyl oleate, hydrochloride) was “No measurable solubility” and the Assay ([6]; in sesame oil, hydrochloride) was “No measurable solubility”.
In the case of `CC(C)OC(=O)[C@H](C)N[P@](=O)(CO[C@H](C)Cn1cnc2c(N)ncnc21)Oc1ccccc1` [TAF base], the “Daily RR” value [2, 8] is reported as 94.8 ± 17.6 µg/day, the “Daily RR” value [2, 9] is reported as 57.9 ± 8.6 µg/day and the “Daily RR” value ([2]; segmented implant: LNG:sesame oil 2:1 (20 mm, 70 μm) + TAF base:castor oil 2:1 (30 mm, 70 μm)) is reported as 86.4 ± 10.3 µg/day. The “Daily RR” value ([2]; segmented implant: LNG:sesame oil 2:1 (20 mm, 70 μm) + TAF base:sesame oil 2:1 (30 mm, 70 μm)) was 47.7 ± 6.7 µg/day.
